Results from PMC11017401, “Novel molecular mechanism driving neuroprotection after soluble epoxide hydrolase inhibition: Insights for Alzheimer's disease therapeutics” (CNS Neuroscience & Therapeutics, 2023).
“Also recorded” adds a separate entry of the source. Marks after values point to notes of the source that are not given here.

Key:
[1] = test system: Human primary astrocytes; experiment: T/I/C-induced reactive astrocyte conversion (qPCR, western blot); format: cell-based
Procedure: A total quantity of 1 × 10^6 astrocytes isolated from CD1 mouse brain (ScienCell #M1800) or primary human astrocyte (ScienCell #1800) were seeded onto PLL‐coated 6‐well culture plates in astrocyte medium (ScienCell #1831 or #1801).
Astrocytes cultures were incubated in serum‐free condition for 24 h and pretreated for 30 min with UB‐SCG‐51 or p‐eIF2α signal inhibitor (Sigma, SML0843), followed by recombinant T/I/C: IL‐1α (3 ng/mL, Peprotech, Thermo Fisher), TNF‐α (30 ng/mL, R&D), C1q (400 ng/mL, R&D), or PBS for 24 h.
Microglia or astrocyte proteins were extracted by RIPA buffer (Thermo Fisher Scientific Inc.). Extracted proteins were separated by SDS/PAGE and subsequently transferred to nitrocellulose membranes (Bio‐Rad). Membranes were blocked in 3% BSA for 1 h at RT and incubated with primary antibodies (details in resource and reagent Table) overnight at 4°C, followed by incubation with Highly Cross‐Adsorbed Secondary Antibody, Alexa Fluor Plus 800 or 680 (Life Technologies) for 1 h at RT. Membranes visualized on Odyssey (LI‐COR Biosciences).
Microglia or astrocyte total RNAs were isolated by using a Quick‐RNA kit (Zymo Research, Inc.). The concentration of total RNAs was measured using a UV–Vis spectrophotometer (NanoDrop8000, Thermo Fisher Scientific Inc.) and reverse‐transcribed with a high‐capacity cDNA reverse transcription kit (Applied Biosystems). Gene expression was quantified by Fast SYBR green real‐time PCR on a Quantstudio 5 system (Applied Biosystems). Data were analyzed according to the comparative Ct method. Gapdh was used to normalize the amounts of cDNA within each sample.

[2] = test system: PTZ-induced seizures in mice; experiment: Pentylenetetrazol (PTZ) seizure test
Procedure: Then, a standard acute test involving the administration of pro‐convulsant PTZ was employed.[32], [33] Furthermore, the PTZ assay is considered highly translatable from mice to humans. In the test, PTZ was administered at 85 mg/Kg by the subcutaneous route and the time to onset of first clonic seizure, an average of clonic seizures, tonic seizure latency and lethality were monitored for 30 min.

[3] = 5 mg/Kg by gavage 1 h prior to PTZ 85 mg/Kg s.c.

| SMILES | C3 gene expression levels in co-treatment ([1]; T/I/C-activated astrocytes, SML0843 + UB-SCG-51, T/I/C alone about 10x control) [x fold] | C3 gene expression in T/I/C-activated astrocytes, single treatment ([1]; human primary astrocytes, T/I/C 24 h) | effect of co-treatment with p-eIF2α signal inhibitor (SML0843) on the UB-SCG-51 effect on C3 gene expression ([1]; human primary astrocytes, T/I/C, SML0843 + UB-SCG-51) | onset of tonic seizures induced by PTZ vs vehicle ([2]; 5 mg/Kg by gavage) | Average clonic seizure (SEM) [2, 3] | Protected from tonic/total (Mortality) [2, 3] | Mean time to clonic seizure latency in seconds (SEM) ([2]; 5 mg/Kg by gavage 1 h prior to PTZ 85 mg/Kg s.c., monitored 30 min) | average seizure score ([2]; 5 mg/Kg by gavage, group comparison) |
| --- | --- | --- | --- | --- | --- | --- | --- | --- |
| O=C(COc1ccc(Cl)cc1)NC1CCC(NC(=O)COc2ccc(Cl)cc2)CC1 (centres unmarked) [SML0843] | 2 | did not modify; also recorded: did not affect | partially block |  |  |  |  |  |
| CCC(=O)N1CCC(NC(=O)Nc2ccc(OC(F)(F)F)cc2)CC1 [TPPU] |  |  |  | delay the onset of tonic seizures | 3.67 (0.56)** | 5/6^**** | 605.33 (144.78) seconds | significant reduction |
